Laboratory results from ChEMBL document CHEMBL2062511, “Synthesis and anti-HIV activities of symmetrical dicarboxylate esters of dinucleoside reverse transcriptase inhibitors” (Bioorg Med Chem Lett, 2012).

Key:
[1] = Therapeutic index, ratio of TC50 for human PBMC to EC50 for HIV-1 subtype B US/92/727 infected in PBMC; conditions: uninfected and infected with HIV-1 subtype B US/92/727, read-out: TI
[2] = system: Human immunodeficiency virus 1; assay: Antiviral activity against HIV-1 subtype 3B infected in CEM-SS cells assessed as inhibition of viral replication after 6 days by XTT assay; type: functional, organism-based; conditions: Human immunodeficiency virus 1, subtype 3B, 144 h
[3] = system: Human immunodeficiency virus 1; assay: Antiviral activity against HIV-1 subtype B US/92/727 infected in PBMC assessed as inhibition of viral replication after 7 days by XTT assay; type: functional, organism-based; conditions: Human immunodeficiency virus 1, subtype B US/92/727, 168 h
[4] = Cytotoxicity against human CEM-SS cells by XTT method; type: cell-based; conditions: read-out: TC50 (the source's name)
[5] = system: Human immunodeficiency virus 1; assay: Ratio of FLT EC50 to compound EC50 for HIV-1 subtype 3B infected in CEM-SS cells; type: functional
[6] = Therapeutic index, ratio of TC50 for human CEM-SS cells to EC50 for HIV-1 subtype 3B infected in CEM-SS cells; type: cell-based; conditions: uninfected and infected with HIV-1 subtype 3B, read-out: TI
[7] = Cytotoxicity against human PBMC; type: cell-based; conditions: read-out: TC50 (the source's name)
[8] = system: Human immunodeficiency virus 1; assay: Ratio of FLT EC50 to compound EC50 for HIV-1 subtype B US/92/727 infected in PBMC; type: functional
[9] = system: Human immunodeficiency virus 1; assay: Ratio of 3TC EC50 to compound EC50 for HIV-1 subtype 3B infected in CEM-SS cells; type: functional
[10] = system: Human immunodeficiency virus 1; assay: Ratio of 3TC EC50 to compound EC50 for HIV-1 subtype B US/92/727 infected in PBMC; type: functional
[11] = system: Human immunodeficiency virus 1; assay: Ratio of AZT EC50 to compound EC50 for HIV-1 subtype B US/92/727 infected in PBMC; type: functional

| Compound | selectivity ratio [1] | EC50 [2] [µM] | EC50 [3] [µM] | CC50 [4] [µM] | Ratio EC50 [5] | selectivity ratio [6] | CC50 [7] [µM] | Ratio EC50 [8] | Ratio EC50 [9] | Ratio EC50 [10] | Ratio EC50 [11] |
| --- | --- | --- | --- | --- | --- | --- | --- | --- | --- | --- | --- |
| Cc1cn([C@H]2C[C@H](F)[C@@H](COC(=O)CCCCCCCCC(=O)OC[C@H]3O[C@@H](n4cc(C)c(=O)[nH]c4=O)C[C@@H]3F)O2)c(=O)[nH]c1=O | > 1000 | 0.004 | 0.001 | > 1 | 5 | > 250 | > 1 | – | – | – | – |
| Cc1cn([C@H]2C[C@H](F)[C@@H](COC(=O)CCCCCCCCCCC(=O)OC[C@H]3O[C@@H](n4cc(C)c(=O)[nH]c4=O)C[C@@H]3F)O2)c(=O)[nH]c1=O | > 1030 | 0.004 | 0.00097 | > 1 | 5 | > 250 | > 1 | 2 | – | – | – |
| Cc1cn([C@H]2C[C@H](F)[C@@H](COC(=O)CCCCCCCCCCCCC(=O)OC[C@H]3O[C@@H](n4cc(C)c(=O)[nH]c4=O)C[C@@H]3F)O2)c(=O)[nH]c1=O | > 1320 | 0.003 | 0.00076 | > 1 | 5 | > 333 | > 1 | 2 | – | – | – |
| Cc1cn([C@H]2C[C@H](N=[N+]=[N-])[C@@H](COC(=O)CCCCCCCCC(=O)OC[C@H]3O[C@@H](n4cc(C)c(=O)[nH]c4=O)C[C@@H]3N=[N+]=[N-])O2)c(=O)[nH]c1=O | > 250 | 0.005 | 0.004 | > 1 | – | > 200 | > 1 | – | – | – | – |
| Cc1cn([C@H]2C[C@H](N=[N+]=[N-])[C@@H](COC(=O)CCCCCCCCCCC(=O)OC[C@H]3O[C@@H](n4cc(C)c(=O)[nH]c4=O)C[C@@H]3N=[N+]=[N-])O2)c(=O)[nH]c1=O | > 500 | 0.004 | 0.002 | > 1 | – | > 250 | > 1 | – | – | – | – |
| Cc1cn([C@H]2C[C@H](N=[N+]=[N-])[C@@H](COC(=O)CCCCCCCCCCCCC(=O)OC[C@H]3O[C@@H](n4cc(C)c(=O)[nH]c4=O)C[C@@H]3N=[N+]=[N-])O2)c(=O)[nH]c1=O | > 333 | 0.003 | 0.003 | > 1 | – | > 333 | > 1 | – | – | – | – |
| Nc1ccn([C@@H]2CS[C@H](COC(=O)CCC(=O)OC[C@@H]3O[C@H](n4ccc(N)nc4=O)CS3)O2)c(=O)n1 | > 7 | 0.13 | 0.15 | > 1 | – | > 7.7 | > 1 | – | – | – | – |
| Nc1ccn([C@@H]2CS[C@H](COC(=O)CCCCCCCCC(=O)OC[C@@H]3O[C@H](n4ccc(N)nc4=O)CS3)O2)c(=O)n1 | > 17 | 0.03 | 0.06 | > 1 | – | > 33 | > 1 | – | 1.5 | 1.5 | – |
| Nc1ccn([C@@H]2CS[C@H](COC(=O)CCCCCCCCCCC(=O)OC[C@@H]3O[C@H](n4ccc(N)nc4=O)CS3)O2)c(=O)n1 | > 50 | 0.009 | 0.02 | > 1 | – | > 333 | > 1 | – | – | – | – |
| Nc1ccn([C@@H]2CS[C@H](COC(=O)CCCCCCCCCCCCC(=O)OC[C@@H]3O[C@H](n4ccc(N)nc4=O)CS3)O2)c(=O)n1 | > 33 | 0.003 | 0.03 | > 1 | – | > 333 | > 1 | – | 3 | 3 | – |
| Cc1cn([C@H]2C[C@H](F)[C@@H](CO)O2)c(=O)[nH]c1=O [ALOVUDINE] | > 250 | 0.02 | 0.002 | > 0.5 | 4 | > 25 | > 0.5 | – | – | – | 45 |
| Nc1ccn([C@@H]2CS[C@H](CO)O2)c(=O)n1 [LAMIVUDINE] | > 5.6 | 0.2 | 0.09 | > 0.5 | – | > 2.5 | > 0.5 | – | – | – | – |
| Cc1cn([C@H]2C[C@H](N=[N+]=[N-])[C@@H](CO)O2)c(=O)[nH]c1=O [ZIDOVUDINE] | > 125 | 0.002 | 0.008 | > 0.5 | – | > 250 | > 1 | – | – | – | – |
